Results from patent US20220193047A1, “METHODS OF ENHANCING RADIOTHERAPY USING FERROPTOSIS INDUCERS AS RADIOSENSITIZERS” (THE TRUSTEES OF COLUMBIA UNIVERSITY IN THE CITY OF NEW YORK, priority 2019, published 2022).

Columns and labels:
Type in all cases: cell-based
[1] = test system: malondialdehyde (MDA); test: TBARS assay of MDA levels; details: HT-1080, 24 h; 1 μM IKE or 10 μM ferrostatin-1, with or without 6 Gy radiation
Experimental: 2 million cells were seeded in T175 flasks. […] The whole lysate was used to determine MDA concentration in each sample. We used the TBARS assay kit (Cayman Chemical) and followed the product instructions.
Next, levels of malondialdehyde (MDA), a biomarker for lipid peroxidation and ferroptosis, were quantified using an assay that measures thiobarbituric acid reactive substances (TBARS) (Gaschler et al., 2018). In this assay, thiobarbituric acid (TBA) was added to cell lysates and heated under acidic conditions to form the MDA-TBA adduct, which was measured colorimetrically.

[2] = test system: cleaved caspase-3; test: Western blot of cleaved caspase-3; details: for Cleaved caspase-3, added to radiation: HT-1080, 6 Gy, 24 h; for Cleavage of caspase-3, compound alone: HT-1080, IKE or RSL3 24 h, staurosporine 500 nM for 6 h
Experimental: 1 million cells were seeded in 10 cm dishes and treated with compounds and/or radiation on the next day. […] After quantification by Bradford, samples were mixed with 5×SDS loading buffer and separated by SDS-polyacrylamide gel electrophoresis. After transfer, membranes were blocked for 10 min in Tris-buffered saline (pH 7.4) with 1% Tween-20 (TBS-T) with 5% milk and incubated in primary antibody overnight at 4° C. Following 3× for 5 min washes in TBS-T, the membrane was incubated with secondary antibodies for 1 hr. The membrane was washed again in TBST 3× for 5 min prior to visualization using enhanced chemiluminescence (ECL Western Blotting Substrate, Pierce). Antibody for cleaved caspase 3 (Cell Signaling Technology, #9661) was used at 1:1000 and detected using a Peroxidase AffiniPure Goat Anti-Rabbit IgG (H+L) (Jackson ImmunoResearch, 111-295-144) at 1:5000 dilution.
DNA damage is a potent inducer of apoptosis. […] Despite this, some quantity of 17-kDa cleaved caspase-3 was still detectable in the Z-VAD-FMK-treated sample. To further check for potential radiation-induced apoptosis in this model at a later time point, we attempted to rescue the effects of radiation using 100 μM Z-VAD-FMK after 48, 72, and 96 h (FIG. 10).

[3] = test system: human glioma slice cultures; test: Human glioma organotypic slice cultures, H2DCFDA ROS by flow cytometry
Experimental: Human surgical specimens were collected from Columbia University Medical Center operating theaters in accordance with Institutional Review Board protocols. Surgical specimens were deidentified, placed in a sterile 50 mL conical tube containing ice-cold sucrose solution (210 mM sucrose, 10 mM glucose, 2.5 mM KCl, 1.25 mM NaH2PO4, 0.5 mM CaCl2), 7 mM MgCl2 and 26 mM NaHCO3). Tissue specimens were let rest in the sucrose solution for 20 minutes. Tissue specimens were then cut into 300 μm sections using a Mcllwain Tissue Chopper. Sections after cutting were let rest in the sucrose solution for 20 minutes. Then the tissue sections were transferred onto Millicell cell culture inserts ([…], 30 mm diameter) and placed in 6-well plates containing 1.5 mL of media. The media consisted of DMEM/F12 plus N−2 Supplement. […]
To further study the potential of combining small-molecule ferroptosis inducers and radiation for human therapeutic use, ex vivo samples of human glioma, which have been immediately cut from freshly resected tumors and grown as organotypic slice cultures, were used as previously described (Parker et al., 2017). De-identified patient information for these tumor samples are recorded in Table 4. […] Tumor cell viability within slices was not assessed, as the number of tumor cells embedded in each slice cannot be normalized between slices.

[4] = test system: U87 cells; test: Clonogenic assay with radiation, U87
Experimental: 500 cells were seeded per well in 6-well plates in their respective growth media and incubated overnight. The next day, cells were co-treated with DMSO or compounds and radiation using a Gammacell 40 Caesium-137 irradiator (Theratronics). Plates were monitored every day using a light microscope for formation of colonies in the DMSO-treated wells. When colonies of >50 cells are clearly visible, the growth medium was discarded from all plates. The cells were washed with PBS, then fixed and stained with crystal violet solution (0.05% crystal violet, 1% formaldehyde, 1% methanol in PBS). Colonies were then directly visualized and counted.
The coefficient of drug interaction (CDI), used to compute interaction between two drugs, was used to quantify synergy between cell death inducers and radiation according to the formula CDI=AB/(A×B), where AB is the surviving fraction of the combination treatment, and A and B are the surviving fractions of the individual treatments. […]
It was then tested whether cell death enhancement of radiation with ferroptosis inducers occurred across diverse tumor cell types. […] In addition to the initial ferroptosis-sensitive HT-1080 sarcoma cell line, glioma and lung cancer cells were evaluated, due to the clinical relevance of radiation therapy for the treatment of these tumor types. […]

Structure (SMILES) | MDA levels [1] | Cleaved caspase-3, added to radiation [2] | Cleavage of caspase-3, compound alone [2] | ROS generation (H2DCFDA), combination with radiation vs control ([3]; 10 μM IKE, 2 Gy radiation, 24 hours, three responsive slice cultures) | Highest observed coefficient of Drug Interaction (CDI) in combination with IR [4] | ROS accumulation with IKE and radiation, ferrostatin-1 co-treatment ([3]; 10 μM ferrostatin-1)
CC(C)Oc1ccc(C(=O)Cn2ccnc2)cc1-n1c(CN2CCN(C(=O)COc3ccc(Cl)cc3)CC2)nc2ccccc2c1=O [IKE, imidazole ketone erastin] | significantly elevated | did not further increase the amount of cleaved caspase-3 | did not induce detectable cleavage of caspase-3 | significant enhancement of ROS generation | 0.65 | 
COC(=O)c1ccc([C@@H]2c3[nH]c4ccccc4c3C[C@@H](C(=O)OC)N2C(=O)CCl)cc1 [RSL3, Ras Synthetic Lethal 3] |  | did not further increase the amount of cleaved caspase-3 | did not induce detectable cleavage of caspase-3 |  | 0.31 | 
CCOC(=O)c1ccc(NC2CCCCC2)c(N)c1 [ferrostatin-1] | significantly lower levels of MDA |  |  |  |  | partially suppressible
